In patent publication US20020049223A1, “Quinoline and naphthyridine carboxylic acid antibacterials” (priority 1999, published 2002):
Where a name gives a salt, the structure may show the parent alone.

What was measured:
Assay in all cases: Assay B: in vitro antibacterial activity, broth microdilution MIC (NCCLS)
Format in all cases: cell-based
Escherichia coli JUHL = details: Table 2, Assay B, cation-adjusted Mueller Hinton broth, 35° C., 16 to 20 hr; code D = Escherichia coli JUHL; unit assumed
Procedure: (§1) Assay B. Determination of Biological Activity In Vitro Assay of Antibacterial Activity
(§2) Representative compounds of the invention were assayed in vitro for antibacterial activity. The susceptibilities of aerobic, nonfastidious species were determined visually by broth microdilution as described by the National Committee for Clinical Laboratory Standards (NCCLS) (National Committee for Clinical Laboratory Standards. 1997. Methods for dilution antimicrobial susceptibility tests for bacteria that grow aerobically. Approved standard M7-A4. National Committee for Clinical Laboratory Standards. Wayne, Pa.). In brief, serial two-fold dilutions of test compounds were made in cation-adjusted Mueller Hinton broth at two-times the final concentration. Inocula were prepared from overnight cultures of test strains. Tests were inoculated with a suspension of bacteria in Mueller Hinton broth to achieve a final density of approximately 5×10^5 CFU/mL. Tests were incubated at 35° C. in ambient air for 16 to 20 hr. Minimum Inhibitory Concentrations (MICs) were determined as the lowest drug concentration completely inhibiting growth. Ciprofloxacin was included as a control. For testing S. pneumoniae, the cation-adjusted Mueller Hinton broth was supplemented with 3% lysed horse blood and the incubation period was extended to 20 to 24 hr. For testing H. influenzae, the cation-adjusted Mueller Hinton broth was supplemented with 5 g/L yeast extract, […] and 15 mg/L NAD and incubation was extended to 20 to 24 hr..

[1] = tested on: Streptococcus pneumoniae ATCC 6303; details: Table 2, Assay B, Mueller Hinton broth with 3% lysed horse blood, 20 to 24 hr; code F = Streptococcus pneumoniae ATCC 6303; unit assumed
Procedure: as §1, §2

[2] = tested on: Haemophilus influenzae DILL AMP R; details: Table 2, Assay B, Mueller Hinton broth with yeast extract, hematin and NAD, 20 to 24 hr; code E = Haemophilus influenzae DILL AMP R; unit assumed
Procedure: as §1, §2

[3] = tested on: Enterococcus faecalis PIU 1967; details: Table 2, Assay B, cation-adjusted Mueller Hinton broth, 35° C., 16 to 20 hr; code B = Enterococcus faecalis PIU 1967; unit assumed
Procedure: as §1, §2

[4] = tested on: Staphylococcus aureus ATCC 6538P; details: Table 2, Assay B, cation-adjusted Mueller Hinton broth, 35° C., 16 to 20 hr; code A = Staphylococcus aureus ATCC 6538P; unit assumed
Procedure: as §1, §2

Compound | Antibacterial Activity (MIC's), D (Escherichia coli JUHL) | Antibacterial Activity (MIC's), F [1] | Antibacterial Activity (MIC's), E [2] | Antibacterial Activity (MIC's), B [3] | Antibacterial Activity (MIC's), A [4]
CCON=C1CCc2sc(-c3ccc4c(=O)c(C(=O)O)cn(C5CC5)c4c3OC)cc2C1 [Example 78, 1-cyclopropyl-7-((5E/Z)-5-(ethoxyimino)-4,5,6,7-tetrahydro-1-benzothien-2-yl)-8-methoxy-4-oxo-1,4-dihydro-3-quinolinecarboxylic acid] | 4 µg/mL | 0.25 µg/mL | 2 µg/mL | 1 µg/mL | 0.125 µg/mL
COc1c(-c2cc3c(s2)CCC(=NOCc2ccccc2)C3)ccc2c(=O)c(C(=O)O)cn(C3CC3)c12 [Example 79, 7-((5E/Z)-5-((benzyloxy)imino)-4,5,6,7-tetrahydro-1-benzothien-2-yl)-1-cyclopropyl-8-methoxy-4-oxo-1,4-dihydro-3-quinolinecarboxylic acid] | 4 µg/mL | 0.5 µg/mL | 1 µg/mL | 1 µg/mL | 0.125 µg/mL
COc1c(-c2cc3c(s2)CCCC3=NNC(N)=O)ccc2c(=O)c(C(=O)O)cn(C3CC3)c12 [Example 80, 7-((4E/Z)-4-((aminocarbonyl)hydrazono)-4,5,6,7-tetrahydro-1-benzothien-2-yl)-1-cylopropyl-8-methoxy-4-oxo-1,4-dihydro-3-quinolinecarboxylic acid] | > 64 µg/mL | 0.03 µg/mL | 0.06 µg/mL | > 64 µg/mL | 32 µg/mL
COc1c(-c2cc3c(s2)CCCC3=NNC(N)=S)ccc2c(=O)c(C(=O)O)cn(C3CC3)c12 [Example 84, 7-((4E/Z)-4-[(aminocarbothioyl)hydrazono)-4,5,6,7-tetrahydro-1-benzothien-2-yl)-1-cyclopropyl-8-methoxy-4-oxo-1,4-dihydro-3-quinolinecarboxylic acid] | 1 µg/mL | 0.25 µg/mL | 0.125 µg/mL | 0.25 µg/mL | 0.06 µg/mL
CNC(=S)NN=C1CCCc2sc(-c3ccc4c(=O)c(C(=O)O)cn(C5CC5)c4c3OC)cc21 [Example 85] | 0.5 µg/mL | 0.125 µg/mL | 0.125 µg/mL | 0.25 µg/mL | 0.03 µg/mL
COc1c(-c2cc3c(s2)CCCC3=NN2CCN(C)CC2)ccc2c(=O)c(C(=O)O)cn(C3CC3)c12 [Example 92, 1-cyclopropyl-8-methoxy-7-((4E/Z)-4-((4-methyl-1-piperazinyl)imino)-4,5,6,7-tetrahydro-1-benzothien-2-yl)-4-oxo-1,4-dihydro-3-quinolinecarboxylic acid] | 1 µg/mL | 0.5 µg/mL | 0.06 µg/mL | 0.25 µg/mL | 0.03 µg/mL
COc1c(-c2cc3c(s2)CCCC3=NNC2=NCCN2)ccc2c(=O)c(C(=O)O)cn(C3CC3)c12 [Example 100, 1-cyclopropyl-7-((4E/Z)-4-(4,5-dihydro-1H-imidazol-2-ylhydrazono)-4,5,6,7-tetrahydro-1-benzothien-2-yl)-8-methoxv-4-oxo-1,4-dihydro-3-quinolinecarboxylic acid] | 0.25 µg/mL | 0.03 µg/mL | 0.125 µg/mL | 0.5 µg/mL | 0.06 µg/mL
COc1c(-c2cc3c(s2)S(=O)(=O)N(C)CC3O)ccc2c(=O)c(C(=O)O)cn(C3CC3)c12 (stereo not shown) [Example 102, 1-cyclopropyl-7-(4-hydroxy-2-methyl-1,1-dioxido-3,4-dihydro-2H-thieno[3,2-e][1,2]thiazin-6-yl)-8-methoxy-4-oxo-1,4-dihydro-3-quinolinecarboxylic acid] | 8 µg/mL | 0.5 µg/mL | 0.03 µg/mL | 1 µg/mL | 0.25 µg/mL
COc1c(-c2cc3c(s2)CCCC3NCc2cccc(F)c2)ccc2c(=O)c(C(=O)O)cn(C3CC3)c12 (stereo not shown) [Example 104, 1-cyclopropyl-7-(4-((3-fluorobenzyl)amino)-4,5,6,7-tetrahydro-1-benzothien-2-yl)-8-methoxy-4-oxo-1,4-dihydro-3-quinolinecarboxylic acid hydrochloride] | 2 µg/mL | 0.5 µg/mL | 0.25 µg/mL | 1 µg/mL | 0.25 µg/mL

The next lines start with the values.

Antibacterial Activity (MIC's), D (Escherichia coli JUHL) | Antibacterial Activity (MIC's), F [1] | Antibacterial Activity (MIC's), E [2] | Antibacterial Activity (MIC's), B [3] | Antibacterial Activity (MIC's), A [4] | Compound
0.5 µg/mL | 0.125 µg/mL | 0.25 µg/mL | 0.5 µg/mL | 0.125 µg/mL | COc1c(-c2cc3c(s2)CCCC3N(C)C)ccc2c(=O)c(C(=O)O)cn(C3CC3)c12.Cl (stereo not shown) [Example 83, 1-cyclopropyl-7-(4-(dimethylamino)-4,5,6,7-tetrahydro-1-benzothien-2-yl)-8-methoxy-4-oxo-1,4-dihydro-3-quinolinecarboxylic acid hydrochloride]
1 µg/mL | 0.125 µg/mL | 0.125 µg/mL | 0.25 µg/mL | 0.015 µg/mL | COc1c(-c2cc3c(s2)CCCC3NS(C)(=O)=O)ccc2c(=O)c(C(=O)O)cn(C3CC3)c12 (stereo not shown) [Example 88, 1-cyclopropyl-8-methoxy-7-(4-((methylsulfonyl)amino)-4,5,6,7-tetrahydro-1-benzothien-2-yl)-4-oxo-1,4-dihydro-3-quinolinecarboxylic acid]
2 µg/mL | 1 µg/mL | 0.5 µg/mL | 1 µg/mL | 0.125 µg/mL | COc1c(-c2cc3c(s2)CCCC3n2cccc2)ccc2c(=O)c(C(=O)O)cn(C3CC3)c12 (stereo not shown) [Example 89, 1-cyclopropyl-8-methoxy-4-oxo-7-(4-(1H-pyrrol-1-yl)-4,5,6,7-tetrahydro-1-benzothien-2-yl)-1,4-dihydro-3-quinolinecarboxylic acid]
1 µg/mL | 0.5 µg/mL | 0.25 µg/mL | 1 µg/mL | 0.125 µg/mL | COc1c(-c2cc3c(s2)CCCC3NCc2cccnc2)ccc2c(=O)c(C(=O)O)cn(C3CC3)c12.Cl.Cl (stereo not shown) [Example 94, 1-cyclopropyl-8-methoxy-4-oxo-7-(4-((3-pyridinylmethyl)amino)-4,5,6,7-tetrahydro-1-benzothien-2-yl)-1,4-dihydro-3-quinolinecarboxylic acid dihydrochloride]
1 µg/mL | 0.03 µg/mL | 0.03 µg/mL | 0.5 µg/mL | < 0.004 µg/mL | COc1c(-c2cc3c(s2)CCCC3=NNC(C)=O)ccc2c(=O)c(C(=O)O)cn(C3CC3)c12 [Example 96, 7-((4E/Z)-4-(acetylhydrazono)-4,5,6,7-tetrahydro-1-benzothien-2-yl)-1-cyclopropyl-8-methoxy-4-oxo-1,4-dihydro-3-quinolinecarboxylic acid]
1 µg/mL | 0.5 µg/mL | 0.25 µg/mL | 0.5 µg/mL | 0.125 µg/mL | COc1c(-c2cc3c(s2)CCCC3NCc2ccccc2)ccc2c(=O)c(C(=O)O)cn(C3CC3)c12.Cl (stereo not shown) [Example 97, 7-(4-(benzylamino)-4,5,6,7-tetrahydro-1-benzothien-2-yl)-1-cyclopropyl-8-methoxn-4-oxo-1,4-dihydro-3-quinolinecarboxylic acid hydrochloride]
0.25 µg/mL | 0.06 µg/mL | 0.015 µg/mL | 0.125 µg/mL | 0.015 µg/mL | O=C(O)c1cn(C2CC2)c2c(OC(F)F)c(-c3cc4c(s3)CCCC4O)ccc2c1=O (stereo not shown) [Example 99, 1-cyclopropyl-8-(difluoromethoxy)-7-(4-hydroxy-4,5,6,7-tetrahydro-1-benzothien-2-yl)-4-oxo-1,4-dihydro-3-quinolinecarboxylic acid]
0.125 µg/mL | 0.03 µg/mL | 0.015 µg/mL | 0.125 µg/mL | 0.03 µg/mL | Cl.NC1CCCc2sc(-c3ccc4c(=O)c(C(=O)O)cn(C5CC5)c4c3OC(F)F)cc21 (stereo not shown) [Example 101, 7-(4-amino-4,5,6,7-tetrahydro-1-benzothien-2-yl)-1-cyclopropyl-8-(difluoromethoxy)-4-oxo-1,4-dihydro-3-quinolinecarboxylic acid hydrochloride]
